The NIST ThermoML archive (doi:10.1016/j.jct.2007.07.005)

Experiment: xn = mol fraction of the nth substance listed
Settings: Fluid (supercritical or subcritical phases), vibrating tube

CCCCCO [pentan-1-ol] + O=C=O
Settings	mass density [kg/m3]
323.11 K, 21027 kPa, x2 = 0.1347	813.66
323.11 K, 21051 kPa, x2 = 0.6054	847.84
323.11 K, 22019 kPa, x2 = 0.6054	849.47
323.11 K, 22027 kPa, x2 = 0.1347	814.42
323.11 K, 23017 kPa, x2 = 0.1347	815.16
323.11 K, 23023 kPa, x2 = 0.6054	851.13
323.11 K, 24022 kPa, x2 = 0.1347	815.93
323.11 K, 24036 kPa, x2 = 0.6054	852.76
323.11 K, 24999 kPa, x2 = 0.1347	816.68
323.11 K, 25069 kPa, x2 = 0.6054	854.41
332.79 K, 493 kPa, x2 = 0	784.29
332.79 K, 1014 kPa, x2 = 0	784.76
332.79 K, 2006 kPa, x2 = 0	785.61
332.79 K, 3025 kPa, x2 = 0	786.48
332.79 K, 4011 kPa, x2 = 0	787.28
332.79 K, 5020 kPa, x2 = 0	788.11
332.79 K, 6003 kPa, x2 = 0	788.91
332.79 K, 6997 kPa, x2 = 0	789.73
332.79 K, 8009 kPa, x2 = 0	790.54
332.79 K, 8995 kPa, x2 = 0	791.31
332.79 K, 9996 kPa, x2 = 0	792.12
332.79 K, 11018 kPa, x2 = 0	792.9
332.79 K, 11995 kPa, x2 = 0	793.66
332.79 K, 13023 kPa, x2 = 0	794.45
332.79 K, 13999 kPa, x2 = 0	795.19
332.79 K, 15010 kPa, x2 = 0	795.95
332.79 K, 16028 kPa, x2 = 0	796.68
332.79 K, 17003 kPa, x2 = 0	797.41
332.79 K, 18040 kPa, x2 = 0	798.14
332.79 K, 19004 kPa, x2 = 0	798.84
332.79 K, 20035 kPa, x2 = 0	799.59
332.79 K, 21024 kPa, x2 = 0	800.29
332.79 K, 21993 kPa, x2 = 0	800.97
332.79 K, 23039 kPa, x2 = 0	801.71
332.79 K, 24015 kPa, x2 = 0	802.4
332.79 K, 25022 kPa, x2 = 0	803.12
332.93 K, 8022 kPa, x2 = 0.3624	806.47
332.93 K, 9003 kPa, x2 = 0.3624	807.66
332.93 K, 9033 kPa, x2 = 0.4651	808.88
332.93 K, 10018 kPa, x2 = 0.3624	808.86
332.93 K, 10027 kPa, x2 = 0.4651	810.57
332.93 K, 10989 kPa, x2 = 0.3624	809.94
332.93 K, 11000 kPa, x2 = 0.4651	812.22
332.93 K, 12008 kPa, x2 = 0.3624	811.14
332.93 K, 12019 kPa, x2 = 0.4651	813.92
332.93 K, 12032 kPa, x2 = 0.8067	770.68
332.93 K, 12989 kPa, x2 = 0.9757	593.78
332.93 K, 12995 kPa, x2 = 0.8067	780.67
332.93 K, 13015 kPa, x2 = 0.3624	812.22
332.93 K, 13017 kPa, x2 = 0.4651	815.52
332.93 K, 13981 kPa, x2 = 0.3624	813.29
332.93 K, 13992 kPa, x2 = 0.9757	633.72
332.93 K, 14013 kPa, x2 = 0.8067	788.98
332.93 K, 14027 kPa, x2 = 0.4651	817.14
332.93 K, 15014 kPa, x2 = 0.9757	664.21
332.93 K, 15021 kPa, x2 = 0.3624	814.39
332.93 K, 15023 kPa, x2 = 0.4651	818.68
332.93 K, 15025 kPa, x2 = 0.8067	796.09
332.93 K, 15992 kPa, x2 = 0.3624	815.41
332.93 K, 16007 kPa, x2 = 0.4651	820.18
332.93 K, 16011 kPa, x2 = 0.9757	687.95
332.93 K, 16021 kPa, x2 = 0.8067	802.3
332.93 K, 17012 kPa, x2 = 0.3624	816.44
332.93 K, 17014 kPa, x2 = 0.4651	821.68
332.93 K, 17021 kPa, x2 = 0.8067	808.04
332.93 K, 17022 kPa, x2 = 0.9757	707.96
332.93 K, 18010 kPa, x2 = 0.3624	817.48
332.93 K, 18021 kPa, x2 = 0.8067	813.35
332.93 K, 18021 kPa, x2 = 0.9757	724.84
332.93 K, 18040 kPa, x2 = 0.4651	823.21
332.93 K, 19008 kPa, x2 = 0.9757	739.5
332.93 K, 19011 kPa, x2 = 0.8067	818.27
332.93 K, 19015 kPa, x2 = 0.4651	824.63
332.93 K, 19032 kPa, x2 = 0.3624	818.5
332.93 K, 19997 kPa, x2 = 0.3624	819.44
332.93 K, 20022 kPa, x2 = 0.8067	822.95
332.93 K, 20026 kPa, x2 = 0.4651	826.05
332.93 K, 20041 kPa, x2 = 0.9757	753.18
332.93 K, 21019 kPa, x2 = 0.4651	827.43
332.93 K, 21021 kPa, x2 = 0.9757	764.86
332.93 K, 21024 kPa, x2 = 0.3624	820.43
332.93 K, 21029 kPa, x2 = 0.8067	827.4
332.93 K, 21989 kPa, x2 = 0.8067	831.41
332.93 K, 21997 kPa, x2 = 0.4651	828.79
332.93 K, 22013 kPa, x2 = 0.3624	821.46
332.93 K, 22013 kPa, x2 = 0.9757	775.63
332.93 K, 23008 kPa, x2 = 0.8067	835.47
332.93 K, 23021 kPa, x2 = 0.3624	822.42
332.93 K, 23031 kPa, x2 = 0.4651	830.22
332.93 K, 23997 kPa, x2 = 0.3624	823.36
332.93 K, 24024 kPa, x2 = 0.4651	831.62
332.93 K, 24893 kPa, x2 = 0.3624	824.24
332.95 K, 13016 kPa, x2 = 0.8573	754.58
332.95 K, 13026 kPa, x2 = 0.9216	704.11
332.95 K, 14021 kPa, x2 = 0.9216	723.65
332.95 K, 14042 kPa, x2 = 0.8573	766.56
332.95 K, 15016 kPa, x2 = 0.9216	739.26
332.95 K, 15028 kPa, x2 = 0.8573	776.2
332.95 K, 15984 kPa, x2 = 0.9216	752.12
332.95 K, 16013 kPa, x2 = 0.8573	784.6
332.95 K, 17014 kPa, x2 = 0.8573	792.22
332.95 K, 17039 kPa, x2 = 0.9216	764.27
332.95 K, 18011 kPa, x2 = 0.8573	799.17
332.95 K, 18019 kPa, x2 = 0.9216	774.24
332.95 K, 19005 kPa, x2 = 0.9216	783.37
332.95 K, 19027 kPa, x2 = 0.8573	805.67
332.95 K, 20006 kPa, x2 = 0.8573	811.5
332.95 K, 20008 kPa, x2 = 0.9216	791.89
332.95 K, 20996 kPa, x2 = 0.8573	817.04
332.95 K, 21037 kPa, x2 = 0.9216	799.89
332.95 K, 21691 kPa, x2 = 0.9216	804.69
332.95 K, 22056 kPa, x2 = 0.8573	822.62
332.95 K, 23032 kPa, x2 = 0.8573	827.46
332.95 K, 24010 kPa, x2 = 0.8573	832.11
332.96 K, 3007 kPa, x2 = 0.0816	789.68
332.96 K, 4028 kPa, x2 = 0.0816	790.6
332.96 K, 4991 kPa, x2 = 0.0816	791.47
332.96 K, 5998 kPa, x2 = 0.0816	792.36
332.96 K, 7025 kPa, x2 = 0.0816	793.27
332.96 K, 7995 kPa, x2 = 0.0816	794.13
332.96 K, 9031 kPa, x2 = 0.0816	795.01
332.96 K, 10005 kPa, x2 = 0.0816	795.83
332.96 K, 11008 kPa, x2 = 0.0816	796.67
332.96 K, 12026 kPa, x2 = 0.0816	797.53
